The source of these data is patent US20260216057A1, “PHARMACEUTICAL COMPOSITIONS FOR HERPES VIRUS” (priority 2022, published 2026).

SMILES strings stand for the structures.

Data set [1] is described as follows: Example 6: pritelivir (dihydrate) suspension stability and solubility study. Type of data set: physicochemical. To be noted: 0.9% NaCl + 0.5% polysorbate 80 vehicle, RT. The method, then: An aqueous suspension of crystalline pritelivir free base (dihydrate) in a 0.9% NaCl+0.5% polysorbate 80 vehicle was prepared as follows: • 1) Vehicle (0.9% w/w NaCl and 0.5% w/w polysorbate 80) was prepared by dissolving NaCl and polysorbate 80 in water. • 2) Excess amounts of pritelivir (dihydrate) were weighed and added to the vehicle to achieve −3 mg/mL suspension. • 3) The suspension was sonicated for 15 minutes, then agitated at 500 rpm at room temperature. • 4) At 24 hours, the suspension was filtrated and the filter cake was dried and analyzed by XRPD. The filtrate was analyzed by HPLC to determine solubility. The HPLC methodology and conditions used to quantify pritelivir in the filtrate are described in Table 11.

The conditions of data set [2]: cited from earlier work.
The test system of another data set is recurrent genital herpes. To be noted: oral 100, 200, 400, 1200 mg; patients with recurrent genital herpes; cited from earlier work.
For the next data set, the system named is recurrent genital HSV-2. The following applies: 28 days daily oral dosing; pritelivir 100 mg (after 400 mg loading dose), valacyclovir 500 mg; cited from earlier work.

As a reminder, the solubility is the dissolved amount per volume that the medium holds. As to `Cc1nc(N(C)C(=O)Cc2ccc(-c3ccccn3)cc2)sc1S(N)(=O)=O` [Dihydrate, N-methyl-N-(4-methyl-5-sulfamoyl-1,3-thiazol-2-yl)-2-[4-(pyridin-2-yl)phenyl]acetamide], the solubility at 24 h in data set [1] (0.9% NaCl + 0.5% polysorbate 80 aqueous vehicle, aqueous with cosolvent or surfactant or cyclodextrin, thermodynamic from solid, n = 1) is 16.5 µg/mL. Moreover, in data set [1] (24 hours), the “Insoluble material (solid form by XRPD after solubility experiment)” value is given as “Dihydrate”.

For the molecule `Nc1nc2c(ncn2COCCO)c(=O)[nH]1` [acyclovir], the “human bioavailability following oral administration” value in data set [2] was 10-20%.

For the molecule `Cc1cccc(C)c1N(CC(=O)Nc1ccc(-c2ncon2)cc1)C(=O)C1CCS(=O)(=O)CC1` [amenamevir], the “time to lesion healing vs placebo” value with recurrent genital herpes is “only significantly different between the very highest 1200 mg single dose group and the placebo-tested group”.

For `CC(C)[C@H](N)C(=O)OCCOCn1cnc2c(=O)[nH]c(N)nc21` [valacyclovir], the “HSV shedding, % of genital swabs analysed” value with recurrent genital HSV-2 is 5.3%.
